Calls of active or inactive are those of the source.
Legend:
[1] = target: FAD-linked sulfhydryl oxidase ALR (Homo sapiens, UniProt P55789); experiment: ALR-catalysed DTT oxidation blockers – biochemical, H2O2 detection, luminescence, cherry-pick, dose response (AID 493248)
[2] = target: Dual specificity tyrosine-phosphorylation-regulated kinase 1A (Rattus norvegicus, UniProt Q63470); type: biochemical, Homo sapiens
[3] = target: T1, Rac GTPase-activating protein 1 (Homo sapiens, UniProt Q9H0H5); experiment: blockers of MgcRacGAP-driven Rac1 GTP hydrolysis – biochemical, ADP Hunter fluorescence, primary and confirmatory, confirmation (AID 624330); type: functional
T1 sequence (Q9H0H5 whole entry): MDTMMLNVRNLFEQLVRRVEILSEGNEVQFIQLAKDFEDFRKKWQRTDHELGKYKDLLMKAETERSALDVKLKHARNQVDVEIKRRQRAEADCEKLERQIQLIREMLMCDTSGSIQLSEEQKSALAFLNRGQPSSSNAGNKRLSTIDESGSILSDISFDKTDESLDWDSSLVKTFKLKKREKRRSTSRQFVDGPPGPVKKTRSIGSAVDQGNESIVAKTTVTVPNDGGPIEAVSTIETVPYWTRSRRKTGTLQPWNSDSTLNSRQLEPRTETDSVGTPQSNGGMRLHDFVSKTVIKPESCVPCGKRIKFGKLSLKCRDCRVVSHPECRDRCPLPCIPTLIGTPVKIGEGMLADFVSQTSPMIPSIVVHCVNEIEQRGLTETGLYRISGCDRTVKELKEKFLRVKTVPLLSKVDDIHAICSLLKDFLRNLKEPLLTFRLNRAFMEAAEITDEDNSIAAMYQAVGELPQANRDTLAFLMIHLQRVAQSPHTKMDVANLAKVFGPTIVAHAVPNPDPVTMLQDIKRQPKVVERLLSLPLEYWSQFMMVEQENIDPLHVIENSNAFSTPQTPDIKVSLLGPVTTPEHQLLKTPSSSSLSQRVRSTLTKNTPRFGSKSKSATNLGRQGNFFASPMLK

[4] = target: T2, Short transient receptor potential channel 4 (Mus musculus, UniProt Q9QUQ5); experiment: block of DAMGO-driven TRPC4 calcium entry – cell-based, HEK293 TRPC4/mu-opioid, Fluo-4 calcium, dose response (AID 434942); type: functional;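 note: potency of inhibitors blocking the TRPC4 calcium response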
T2 sequence (Q9QUQ5 whole entry): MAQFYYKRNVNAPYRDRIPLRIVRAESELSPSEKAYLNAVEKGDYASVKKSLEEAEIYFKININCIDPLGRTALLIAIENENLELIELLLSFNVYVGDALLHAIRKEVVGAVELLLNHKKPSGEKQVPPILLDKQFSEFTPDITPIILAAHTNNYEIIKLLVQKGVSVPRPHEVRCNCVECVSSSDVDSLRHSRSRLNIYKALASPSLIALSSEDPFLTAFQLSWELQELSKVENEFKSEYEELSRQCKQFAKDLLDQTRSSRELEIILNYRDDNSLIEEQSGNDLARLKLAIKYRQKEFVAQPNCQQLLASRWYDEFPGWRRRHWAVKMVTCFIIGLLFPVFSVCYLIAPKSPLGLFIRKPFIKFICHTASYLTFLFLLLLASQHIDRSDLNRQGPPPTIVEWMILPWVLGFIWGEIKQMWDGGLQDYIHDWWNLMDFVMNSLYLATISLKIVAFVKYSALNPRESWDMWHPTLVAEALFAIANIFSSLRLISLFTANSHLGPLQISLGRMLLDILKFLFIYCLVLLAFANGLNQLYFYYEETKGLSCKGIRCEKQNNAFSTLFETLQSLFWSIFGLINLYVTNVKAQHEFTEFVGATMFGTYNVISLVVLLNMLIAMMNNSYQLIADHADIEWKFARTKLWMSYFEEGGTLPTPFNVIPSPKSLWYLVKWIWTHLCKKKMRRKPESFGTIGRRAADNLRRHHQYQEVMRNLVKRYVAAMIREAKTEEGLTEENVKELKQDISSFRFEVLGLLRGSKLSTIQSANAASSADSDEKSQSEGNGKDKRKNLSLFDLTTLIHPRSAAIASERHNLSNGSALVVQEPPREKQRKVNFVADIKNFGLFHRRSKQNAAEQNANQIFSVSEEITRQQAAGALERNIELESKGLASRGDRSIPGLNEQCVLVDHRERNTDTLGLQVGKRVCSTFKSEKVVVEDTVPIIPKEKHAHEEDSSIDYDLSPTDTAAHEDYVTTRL

BJ [5] = experiment: BJ-TERT fibroblast viability loss – cell-based, RAS-independent, luminescence, dose response (AID 1933); type: functional; details: Homo sapiens
[6] = DRD fibroblast viability loss – cell-based, non-viral oncogenic, luminescence, dose response (AID 1934); type: functional; details: Homo sapiens
BJ [7] = experiment: growth inhibition of engineered Ras-driven BJ cells – cell-based, alamar blue fluorescence, cherrypicked samples, dose response (AID 2631); type: functional; details: Homo sapiens;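 note: confirmatory dose-response assay in RAS-dependent BJ fibroblasts engineered with TERT, LT and ST, with cytotoxicity read by fluorescence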
BJ [8] = experiment: cells; type: functional, cell-based; details: Homo sapiens
BJ [9] = experiment: BJ-TERT-LT-ST fibroblast viability loss – cell-based, RAS-independent, luminescence, dose response (AID 1935); type: functional; details: Homo sapiens;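 note: BJ fibroblasts immortalized with TERT plus LT and ST oncogenes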
Protein Wnt-3a = Protein Wnt-3a (Mus musculus, UniProt P27467); experiment: antagonism of Wnt3a pathway luciferase reporter – Wnt-LIGHT cells, luminescence, selectivity assay for Gli-SUFU antagonist project, dose response (AID 651570); type: functional; details: read-out: IC50_Mean;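 note: Wnt-LIGHT reporter cells stimulated with conditioned medium from Wnt3a-producing cells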
[10] = alpha-synuclein stem-loop luciferase translation blockers – H4 neuroglioma cells, luminescence, confirmation (AID 1988); type: functional, cell-based
[11] = Luminescence Cell-Based Dose Response HTS to Identify Inhibitors of 5'UTR Stem-Loop Driven Prion Protein mRNA Translation in H4 Neuroglioblastoma Cells. [Related pubchem assays: 1827 (Project Summary), 1813 (Primary HTS)]; type: functional
[12] = target: Glucose-6-phosphate 1-dehydrogenase (Homo sapiens, UniProt P11413); experiment: inhibition of Homo sapiens G6PD, dose series – biochemical, fluorescence, selectivity assay for P. falciparum G6PD inhibitor project, dose response (AID 504792); type: functional
[13] = Luminescence Cell-Based Dose Confirmation HTS to Identify Inhibitors of Platelet Dense Granule Release. [Related pubchem assays: 1663 (Primary HTS), 1678 (Summary of Project)]; type: functional
[14] = target: T3, RNA-binding protein pos-1 (Caenorhabditis elegans, UniProt G5EF15); experiment: disruptors of C. elegans POS-1 RNA interaction – biochemical, fluorescence polarization, dose response (AID 1964);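 note: purified POS-1 fused to maltose binding protein made in E. coli; potency of compounds blocking POS-1 binding to fluorescent RNA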
T3 sequence (G5EF15 whole entry): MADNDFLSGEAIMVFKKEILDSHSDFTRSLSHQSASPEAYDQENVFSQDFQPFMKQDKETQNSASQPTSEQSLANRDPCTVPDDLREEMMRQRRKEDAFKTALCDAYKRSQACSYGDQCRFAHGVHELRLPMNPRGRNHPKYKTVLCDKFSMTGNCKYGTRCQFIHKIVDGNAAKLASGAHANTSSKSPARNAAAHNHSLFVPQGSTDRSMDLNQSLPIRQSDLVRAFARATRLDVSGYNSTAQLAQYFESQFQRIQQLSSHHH

[15] = target: T4, Zinc finger protein mex-5 (Caenorhabditis elegans, UniProt Q9XUB2); experiment: potency of MEX-5 RNA-binding blockers – biochemical, C. elegans, fluorescence polarization, dose response (AID 1960)
T4 sequence (Q9XUB2 whole entry): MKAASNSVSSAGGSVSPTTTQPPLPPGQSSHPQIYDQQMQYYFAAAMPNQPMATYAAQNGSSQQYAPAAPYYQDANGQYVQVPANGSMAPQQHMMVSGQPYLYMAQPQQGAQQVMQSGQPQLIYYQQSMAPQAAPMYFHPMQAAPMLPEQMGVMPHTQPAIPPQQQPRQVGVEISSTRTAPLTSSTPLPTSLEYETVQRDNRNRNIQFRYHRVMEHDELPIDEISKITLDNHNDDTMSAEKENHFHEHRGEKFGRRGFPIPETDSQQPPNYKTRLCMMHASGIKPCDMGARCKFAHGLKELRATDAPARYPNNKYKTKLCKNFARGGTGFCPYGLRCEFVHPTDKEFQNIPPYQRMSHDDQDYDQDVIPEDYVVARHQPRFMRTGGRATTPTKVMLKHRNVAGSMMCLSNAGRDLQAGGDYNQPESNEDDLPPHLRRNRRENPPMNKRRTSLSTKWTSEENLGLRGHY

[16] = target: Luciferin 4-monooxygenase (Photinus pyralis, UniProt P08659); experiment: inhibition of purified Photinus pyralis luciferase – biochemical, luminescence, dose response (AID 1891)
INS1 = experiment: INS-1E survival protection against cytokine death – cell-based, luminescence, retest, dose response (AID 449756); type: functional; details: Rattus norvegicus;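 note: cell death triggered by IL-1 beta plus TNF-alpha plus IFN-gamma mixture; protective hits raise ATP signal compared with cytokine alone wells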
Vero = experiment: cells; type: functional; details: Chlorocebus sabaeus
HEK293 = experiment: EBV LMP1 TES2 canonical NF-kB signalling blockers – cell-based, HEK293, luciferase, cherry-pick, dose response (AID 588343); type: functional; details: Homo sapiens
cells = type: functional
[17] = cAMP pathway inhibition in counterscreen cell line – TR-FRET cAMP detection, counter-screen for MC4R biased antagonist project, dose response (AID 602305); type: functional, cell-based;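 note: U2OS cells stimulated with forskolin near its EC80 as the cAMP inducer; potency is for inhibition of forskolin-stimulated cAMP signaling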
Melanocortin receptor 4 = Melanocortin receptor 4 (Homo sapiens, UniProt P32245); experiment: inhibitors of MC4R cAMP signaling – cell-based, TR-FRET, biased antagonists, dose response (AID 602298); type: functional;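 note: antagonist potency against agonist-stimulated cAMP production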
[18] = THP-1 cell cytotoxicity, dose response, cytotoxicity control for non-replicating M. tuberculosis project (AID 489025); type: functional

Chain of Melanocortin receptor 4 (P32245 whole entry): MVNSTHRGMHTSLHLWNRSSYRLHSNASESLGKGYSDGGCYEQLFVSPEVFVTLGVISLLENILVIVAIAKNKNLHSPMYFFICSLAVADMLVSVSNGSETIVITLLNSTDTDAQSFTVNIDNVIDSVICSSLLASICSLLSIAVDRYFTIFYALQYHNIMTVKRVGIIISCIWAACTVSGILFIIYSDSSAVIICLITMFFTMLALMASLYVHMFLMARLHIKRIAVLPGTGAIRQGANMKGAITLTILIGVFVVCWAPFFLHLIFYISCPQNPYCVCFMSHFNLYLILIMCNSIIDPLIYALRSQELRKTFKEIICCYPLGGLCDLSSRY
Chain of Protein Wnt-3a (P27467 whole entry): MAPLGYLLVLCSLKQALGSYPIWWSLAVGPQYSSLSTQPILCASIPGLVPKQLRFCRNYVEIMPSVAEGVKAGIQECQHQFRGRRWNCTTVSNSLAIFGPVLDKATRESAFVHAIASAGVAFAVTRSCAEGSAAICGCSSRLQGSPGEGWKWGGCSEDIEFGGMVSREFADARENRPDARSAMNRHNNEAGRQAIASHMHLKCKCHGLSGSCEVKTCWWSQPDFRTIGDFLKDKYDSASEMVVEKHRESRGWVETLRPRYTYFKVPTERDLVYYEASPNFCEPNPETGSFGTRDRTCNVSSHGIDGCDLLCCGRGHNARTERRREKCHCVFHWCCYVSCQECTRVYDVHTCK
Chain of Luciferin 4-monooxygenase (P08659 whole entry): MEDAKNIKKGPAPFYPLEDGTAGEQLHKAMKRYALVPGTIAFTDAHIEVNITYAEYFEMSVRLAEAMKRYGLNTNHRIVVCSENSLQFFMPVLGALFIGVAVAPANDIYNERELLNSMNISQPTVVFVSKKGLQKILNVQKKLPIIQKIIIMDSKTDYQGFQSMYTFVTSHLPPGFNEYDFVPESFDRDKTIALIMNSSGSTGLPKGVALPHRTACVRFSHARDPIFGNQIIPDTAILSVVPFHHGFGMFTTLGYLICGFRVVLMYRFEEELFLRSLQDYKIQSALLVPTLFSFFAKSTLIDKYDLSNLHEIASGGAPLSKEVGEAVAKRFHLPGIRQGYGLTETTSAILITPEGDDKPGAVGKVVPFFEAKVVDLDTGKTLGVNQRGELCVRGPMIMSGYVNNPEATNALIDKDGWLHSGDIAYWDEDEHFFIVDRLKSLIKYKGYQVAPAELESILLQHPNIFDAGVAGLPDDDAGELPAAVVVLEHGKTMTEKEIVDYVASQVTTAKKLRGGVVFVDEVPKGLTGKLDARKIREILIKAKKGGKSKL
Chain of Glucose-6-phosphate 1-dehydrogenase (P11413 whole entry): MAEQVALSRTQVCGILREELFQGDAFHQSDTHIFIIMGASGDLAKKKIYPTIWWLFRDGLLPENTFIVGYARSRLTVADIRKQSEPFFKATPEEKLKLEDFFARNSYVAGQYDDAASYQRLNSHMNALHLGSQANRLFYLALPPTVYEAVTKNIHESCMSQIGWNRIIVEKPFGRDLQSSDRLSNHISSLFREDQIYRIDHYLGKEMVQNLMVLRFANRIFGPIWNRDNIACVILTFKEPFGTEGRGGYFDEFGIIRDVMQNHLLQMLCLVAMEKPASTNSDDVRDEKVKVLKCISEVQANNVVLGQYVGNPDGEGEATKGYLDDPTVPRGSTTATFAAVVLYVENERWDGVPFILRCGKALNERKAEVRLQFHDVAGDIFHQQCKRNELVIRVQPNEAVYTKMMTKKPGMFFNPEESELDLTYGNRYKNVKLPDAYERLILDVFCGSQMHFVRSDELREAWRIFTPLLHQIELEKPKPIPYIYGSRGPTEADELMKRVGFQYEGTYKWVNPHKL
Chain of FAD-linked sulfhydryl oxidase ALR (P55789 whole entry): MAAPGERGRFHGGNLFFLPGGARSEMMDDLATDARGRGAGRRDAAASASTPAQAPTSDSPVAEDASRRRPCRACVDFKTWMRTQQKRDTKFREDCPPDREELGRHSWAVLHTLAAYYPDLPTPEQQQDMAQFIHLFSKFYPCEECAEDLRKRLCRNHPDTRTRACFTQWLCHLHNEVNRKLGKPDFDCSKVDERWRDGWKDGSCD

Question: With `COc1cc(/C=C2\SC(N3CCC(C)CC3)=NC2=O)ccc1O` as the compound, how does the AC50 [1] read?
Answer: Its AC50 is 0.929 µM (active).

Question: What about the AC50 [2] of the same compound?
Answer: Its AC50 is 2.68 µM (active).

Question: And the IC50 [3]?
Answer: Its IC50 is 16.3 µM (active).

Question: And the EC50 [4]?
Answer: The EC50 was 3.35 µM (active).

Question: With `O=C(CCl)N(CCCNC(=O)C(F)(F)F)c1ccc([N+](=O)[O-])cc1` as the compound, how does the EC50 (BJ [5]) read?
Answer: Its EC50 is 2.53 µM (inconclusive).

Question: What about the EC50 [6] of the same compound?
Answer: The EC50 was 4.66 µM (active).

Question: And the EC50 (BJ [7])?
Answer: Its EC50 is 0.995 µM (active).

Question: What about the EC50 (BJ [8]) of the same compound?
Answer: Its EC50 is 4.39 µM (active).

Question: And the EC50 (BJ [9])?
Answer: The EC50 was 11.6 µM (inconclusive).

Question: Which IC50 (Protein Wnt-3a) does the source give for `Cc1nn(-c2ccc(NC(=O)c3ccncc3)cc2)c(C)c1Cl` here?
Answer: The IC50 was 3 µM (active).

Question: Which results are given for `C(=N\Nc1nc2ccccc2[nH]1)/c1ccccn1`?
Answer: EC50 [10]: 5.82 µM (active); EC50 [11]: 1.29 µM (active); IC50 [12]: > 80 µM (inactive); EC50 [13]: 4.15 µM (active); EC50 (BJ [7]): 1.99 µM (active); EC50 [14]: 72.9 µM (active); EC50 [15]: 41.7 µM (active); EC50 [16]: 1.16 µM (active)

Question: With `O=C(NCc1cccnc1)c1ccc(-c2cc3ccccc3oc2=O)cc1` as the compound, how does the EC50 (BJ [5]) read?
Answer: Its EC50 is 22.6 µM (active).

Question: What about the AC50 (INS1) of the same compound?
Answer: Its AC50 is 3.61 µM (active).

Question: What about the EC50 [6] of the same compound?
Answer: Its EC50 is > 150 µM (not active).

Question: What about the EC50 (BJ [7]) of the same compound?
Answer: The EC50 was 6.49 µM (active).

Question: What about the EC50 (BJ [8]) of the same compound?
Answer: The EC50 was 11.8 µM (inconclusive).

Question: What about the EC50 (BJ [9]) of the same compound?
Answer: Its EC50 is 3.16 µM (active).

Question: Which CC50 (Vero) does the source give for `CN1C(=O)/C(=C\c2ccc(N3CCCCCC3)cc2)C(=O)NC1=S` here?
Answer: The CC50 was 17.9 µM (active).

Question: With `COc1cccc(C(=O)N2CCN(c3nc4cc(C)cc(C)c4cc3C#N)CC2)c1` as the compound, how does the AC50 (HEK293) read?
Answer: Its AC50 is 194 µM (active).

Question: For `C/C(=C\[C@@H](NP(=O)(c1ccccc1)c1ccccc1)c1ccccc1)CO[Si](c1ccccc1)(c1ccccc1)C(C)(C)C`, which CC50 (Vero) is on record?
Answer: The CC50 was > 25 µM (active).

Question: Which IC50 (cells) does the source give for `COc1cccc2[nH]c3c(Cl)ncnc3c12` here?
Answer: Its IC50 is > 50 µM (active).

Question: What about the IC50 [17] of the same compound?
Answer: Its IC50 is > 64.6 µM (inactive).

Question: What about the IC50 (Melanocortin receptor 4) of the same compound?
Answer: The IC50 was > 64.6 µM (inactive).

Question: What about the CC50 [18] of the same compound?
Answer: Its CC50 is 33.9 µM (active).

Question: Which results are given for `COc1ccc(-n2c(SC3CCOC3=O)nc3ccccc32)cc1` (stereo unspecified)?
Answer: IC50 [17]: > 64.6 µM (inactive); IC50 (Melanocortin receptor 4): > 64.6 µM (inactive)

Question: With `COC(=O)c1c(NC(=O)CC2SCC(C(=O)OC)NC2=O)sc2c1CCCC2` (stereo unspecified) as the compound, how does the IC50 [17] read?
Answer: The IC50 was > 64.6 µM (inactive).

Question: What about the IC50 (Melanocortin receptor 4) of the same compound?
Answer: The IC50 was > 64.6 µM (inactive).

Question: For `COC(=O)c1cc(S(=O)(=O)N2CCC(c3cc(OC)ccc3OC)C2)c[nH]1` (stereo unspecified), which IC50 (Protein Wnt-3a) is on record?
Answer: Its IC50 is 7.87 µM (active).
